Assays:
[1] = target: T1, Alpha-1B adrenergic receptor (Homo sapiens, UniProt P35368); experiment: biochemical
T1 sequence (P35368 whole entry): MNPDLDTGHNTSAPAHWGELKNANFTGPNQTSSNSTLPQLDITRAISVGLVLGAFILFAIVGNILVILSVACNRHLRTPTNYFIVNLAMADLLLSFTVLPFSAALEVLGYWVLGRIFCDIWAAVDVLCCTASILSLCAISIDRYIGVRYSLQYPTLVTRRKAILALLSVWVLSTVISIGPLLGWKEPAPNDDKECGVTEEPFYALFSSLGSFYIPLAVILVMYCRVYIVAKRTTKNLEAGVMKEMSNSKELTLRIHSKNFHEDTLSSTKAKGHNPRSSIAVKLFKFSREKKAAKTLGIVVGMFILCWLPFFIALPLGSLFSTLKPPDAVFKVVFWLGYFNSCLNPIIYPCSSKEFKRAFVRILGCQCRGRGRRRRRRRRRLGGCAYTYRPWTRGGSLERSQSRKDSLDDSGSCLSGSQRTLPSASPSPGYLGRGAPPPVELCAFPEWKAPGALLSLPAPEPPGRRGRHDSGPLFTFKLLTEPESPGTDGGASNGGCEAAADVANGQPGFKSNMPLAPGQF
Description: Displacement of [3H]prazosin from human recombinant alpha1B adrenoceptor expressed in CHO cells after 30 mins by liquid scintillation counting

[2] = target: T2, Alpha-1A adrenergic receptor (Homo sapiens, UniProt P35348); experiment: biochemical
T2 sequence (P35348 whole entry): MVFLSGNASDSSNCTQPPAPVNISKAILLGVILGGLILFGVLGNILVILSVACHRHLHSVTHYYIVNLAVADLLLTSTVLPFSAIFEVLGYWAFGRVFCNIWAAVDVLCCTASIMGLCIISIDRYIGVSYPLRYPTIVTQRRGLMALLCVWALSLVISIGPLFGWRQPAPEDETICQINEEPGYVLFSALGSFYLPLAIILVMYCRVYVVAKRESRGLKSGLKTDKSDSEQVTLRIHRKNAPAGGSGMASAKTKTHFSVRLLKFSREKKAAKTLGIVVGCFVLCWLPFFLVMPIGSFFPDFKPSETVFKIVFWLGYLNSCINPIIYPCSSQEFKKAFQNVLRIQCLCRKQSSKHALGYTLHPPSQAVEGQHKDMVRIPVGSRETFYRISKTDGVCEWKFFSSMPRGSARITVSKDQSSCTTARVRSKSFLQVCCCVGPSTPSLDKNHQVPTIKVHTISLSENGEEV
Description: Displacement of [3H]prazosin from human recombinant alpha1A adrenoceptor expressed in CHO cells after 30 mins by liquid scintillation counting

[3] = target: T3, 5-hydroxytryptamine receptor 1A (Homo sapiens) (UniProt P08908); experiment: Agonist activity at human recombinant 5HT1A receptor expressed in HeLa cells preincubated for 20 mins by [35S]GTPgammaS binding assay relative to 8-OH-DPAT; assay type: functional, cell-based
T3 sequence (whole entry): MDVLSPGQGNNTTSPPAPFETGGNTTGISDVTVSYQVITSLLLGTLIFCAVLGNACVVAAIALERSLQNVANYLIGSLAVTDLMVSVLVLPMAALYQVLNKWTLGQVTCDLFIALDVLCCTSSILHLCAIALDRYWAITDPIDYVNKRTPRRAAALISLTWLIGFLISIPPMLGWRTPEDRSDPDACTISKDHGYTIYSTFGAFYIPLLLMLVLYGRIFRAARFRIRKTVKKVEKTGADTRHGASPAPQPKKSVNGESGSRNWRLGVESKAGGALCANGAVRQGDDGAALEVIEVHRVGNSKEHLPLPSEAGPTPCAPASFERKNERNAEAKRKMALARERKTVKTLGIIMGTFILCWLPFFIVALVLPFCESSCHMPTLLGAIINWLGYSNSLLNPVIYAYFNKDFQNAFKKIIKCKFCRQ

[4] = target: T4, Alpha-1D adrenergic receptor (Rattus norvegicus) (UniProt P23944); experiment: Antagonist activity at Alpha-1D adrenoceptor in Wistar rat endothelium denuded thoracic aorta assessed as inhibition of (-)-noradrenalilne-induced contraction after 30 mins; assay type: functional, tissue-based
T4 sequence (whole entry): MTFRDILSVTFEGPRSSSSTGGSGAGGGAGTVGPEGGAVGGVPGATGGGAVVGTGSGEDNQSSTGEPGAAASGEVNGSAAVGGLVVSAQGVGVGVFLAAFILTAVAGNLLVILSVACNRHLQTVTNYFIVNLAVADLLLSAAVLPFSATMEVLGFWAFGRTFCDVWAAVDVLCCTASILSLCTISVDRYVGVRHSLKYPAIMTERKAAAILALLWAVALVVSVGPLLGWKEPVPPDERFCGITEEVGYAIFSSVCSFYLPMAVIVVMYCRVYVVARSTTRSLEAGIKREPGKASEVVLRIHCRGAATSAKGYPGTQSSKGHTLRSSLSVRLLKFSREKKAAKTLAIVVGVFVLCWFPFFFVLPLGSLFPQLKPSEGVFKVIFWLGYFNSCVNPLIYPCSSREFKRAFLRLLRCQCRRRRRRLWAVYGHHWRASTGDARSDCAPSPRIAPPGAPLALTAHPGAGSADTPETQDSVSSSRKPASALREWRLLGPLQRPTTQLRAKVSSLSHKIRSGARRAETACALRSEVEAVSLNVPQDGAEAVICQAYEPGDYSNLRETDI

[5] = target: T5, Alpha-1A adrenergic receptor (Rattus norvegicus) (UniProt P43140); experiment: Antagonist activity at alpha1A adrenoceptor in Wistar rat prostatic vas deferens assessed as inhibition of (-)-noradrenalilne-induced contraction after 30 mins; assay type: functional, tissue-based
T5 sequence (whole entry): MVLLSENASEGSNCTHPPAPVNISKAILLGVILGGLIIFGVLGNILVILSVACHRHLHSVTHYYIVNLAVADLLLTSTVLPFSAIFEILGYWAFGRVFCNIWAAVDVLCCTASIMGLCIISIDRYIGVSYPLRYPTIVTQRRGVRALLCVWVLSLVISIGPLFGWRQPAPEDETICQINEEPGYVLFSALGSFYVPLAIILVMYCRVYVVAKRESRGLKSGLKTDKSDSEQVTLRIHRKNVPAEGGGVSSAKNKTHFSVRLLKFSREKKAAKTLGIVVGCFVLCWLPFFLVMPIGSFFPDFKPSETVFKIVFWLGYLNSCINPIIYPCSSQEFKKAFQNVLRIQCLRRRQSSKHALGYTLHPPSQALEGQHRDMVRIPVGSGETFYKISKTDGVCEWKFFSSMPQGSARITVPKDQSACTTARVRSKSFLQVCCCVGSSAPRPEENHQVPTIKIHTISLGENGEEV

[6] = target: T6, 5-hydroxytryptamine receptor 1A (Homo sapiens, UniProt P08908); experiment: biochemical
T6 sequence (P08908 whole entry): T3 sequence (whole entry)

[7] = target: T3, 5-hydroxytryptamine receptor 1A (Homo sapiens); details: HeLa
[8] = target: T7, Alpha-1B adrenergic receptor (Rattus norvegicus) (UniProt P15823); experiment: Antagonist activity at Alpha-1B receptor in Wistar rat spleen assessed as inhibition of (-)-phenylephrine-induced contraction after 30 mins; assay type: functional, tissue-based
T7 sequence (whole entry): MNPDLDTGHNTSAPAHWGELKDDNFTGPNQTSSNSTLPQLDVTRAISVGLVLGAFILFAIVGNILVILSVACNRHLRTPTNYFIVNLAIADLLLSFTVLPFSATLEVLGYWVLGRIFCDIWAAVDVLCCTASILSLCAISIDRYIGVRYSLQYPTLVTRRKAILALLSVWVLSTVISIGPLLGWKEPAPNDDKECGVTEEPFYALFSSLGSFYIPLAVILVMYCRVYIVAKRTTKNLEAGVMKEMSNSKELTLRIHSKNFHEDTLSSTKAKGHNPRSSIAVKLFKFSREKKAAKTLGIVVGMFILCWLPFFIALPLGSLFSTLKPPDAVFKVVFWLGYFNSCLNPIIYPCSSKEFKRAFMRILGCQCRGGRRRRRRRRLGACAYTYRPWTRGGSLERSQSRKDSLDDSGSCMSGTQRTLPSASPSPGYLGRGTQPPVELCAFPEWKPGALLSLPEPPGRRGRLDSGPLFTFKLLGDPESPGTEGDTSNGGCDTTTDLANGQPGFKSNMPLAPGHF

[9] = target: T8, Alpha-1D adrenergic receptor (Homo sapiens, UniProt P25100); experiment: biochemical
T8 sequence (P25100 whole entry): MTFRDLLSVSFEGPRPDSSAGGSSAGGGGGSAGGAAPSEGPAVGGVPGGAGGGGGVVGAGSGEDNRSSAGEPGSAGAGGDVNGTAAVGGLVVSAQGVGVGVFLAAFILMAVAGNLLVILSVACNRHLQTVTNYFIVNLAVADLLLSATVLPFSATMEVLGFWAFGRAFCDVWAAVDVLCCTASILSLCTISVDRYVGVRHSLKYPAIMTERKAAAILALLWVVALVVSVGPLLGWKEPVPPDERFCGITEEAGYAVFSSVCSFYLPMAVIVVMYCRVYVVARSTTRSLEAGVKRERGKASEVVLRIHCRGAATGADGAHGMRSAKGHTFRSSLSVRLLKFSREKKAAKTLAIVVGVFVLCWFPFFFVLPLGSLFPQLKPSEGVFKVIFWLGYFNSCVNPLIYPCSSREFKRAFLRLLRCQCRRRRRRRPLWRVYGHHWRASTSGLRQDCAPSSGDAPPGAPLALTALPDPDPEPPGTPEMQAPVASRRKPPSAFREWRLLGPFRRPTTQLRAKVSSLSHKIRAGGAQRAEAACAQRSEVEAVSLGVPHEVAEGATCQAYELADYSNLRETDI
Description: Displacement of [3H]prazosin from human recombinant Alpha-1D adrenoceptor expressed in CHO cells after 30 mins by liquid scintillation counting

Compound | Ki [1] [nM] | Ki [2] [nM] | Emax [3] [%] | pKb [4] | pKb [5] | Ki [6] [nM] | pD2 [7] | pKb [8] | Ki [9] [nM]
COc1ccccc1OCCNCC1CCC(c2ccccc2)(c2ccccc2)O1 (centres undefined) | 39.8 | 26.9 | 53.4 | 8.09 | 7.24 | 0.832 | 9.04 | 6.92 | 6.31
c1ccc(OCCNCC2CCC(c3ccccc3)(c3ccccc3)O2)cc1 (centres undefined) | 123 | 53.7 | – | 7.21 | 6.26 | 2 | – | 6.2 | 31.6
c1ccc(OCCNCC2COC(c3ccccc3)(c3ccccc3)O2)cc1 (centres undefined) | – | – | 24.4 | 8.37 | 6.16 | – | 8.8 | 5.86 | –
COc1ccccc1N1CCN(C[C@H]2CCC(c3ccccc3)(c3ccccc3)[C@H]2O)CC1 (relative stereo) | 166 | 38.9 | 47.1 | 7.21 | 5.62 | 0.562 | 9.03 | 7.25 | 67.6
COc1ccccc1N1CCN(CCN2C(=O)CC3(CCCC3)CC2=O)CC1 | – | – | – | – | – | – | 9.27 | 7.48 | –
COc1ccccc1OCCNCC1COC(c2ccccc2)(c2ccccc2)O1 (centres undefined) | – | – | 31.6 | 8.65 | 7.53 | – | 7.36 | 7.36 | –
COc1ccccc1OCCNCC1CCC(c2ccccc2)(c2ccccc2)C1=O (centres undefined) | > 1000 | > 1000 | 39.4 | 6.54 | 6.39 | 3.47 | 8.37 | 6.92 | 141
COc1ccccc1N1CCN(CC2CCC(c3ccccc3)(c3ccccc3)O2)CC1 (centres undefined) | 8.91 | 0.646 | – | 7.5 | 7.65 | 4.37 | – | 6.85 | 3.89
COc1ccccc1OCCNC[C@H]1CCC(c2ccccc2)(c2ccccc2)[C@@H]1O (relative stereo) | 74.1 | 110 | 64.1 | 8.42 | 6.57 | 0.324 | 8.96 | 7.7 | 5.75
COc1ccccc1N1CCN(CC2COC(c3ccccc3)(c3ccccc3)O2)CC1 (centres undefined) | 6.76 | 0.263 | 16.2 | 8.14 | 8.24 | 22.9 | 8.3 | 6.69 | 0.813
COc1ccccc1N1CCN(CC2CCC(c3ccccc3)(c3ccccc3)C2=O)CC1 (centres undefined) | 141 | 39.8 | – | 6.43 | 6.28 | 3.47 | – | 7.54 | 155
O=C1C(CNCCOc2ccccc2)CCC1(c1ccccc1)c1ccccc1 (centres undefined) | > 1000 | > 1000 | 25.5 | 6.3 | < 5 | 10.5 | 7.44 | 6.95 | 389
O[C@@H]1[C@@H](CNCCOc2ccccc2)CCC1(c1ccccc1)c1ccccc1 (relative stereo) | 288 | > 1000 | 64.9 | 6.86 | 5.43 | 9.55 | 7.94 | 6.67 | 93.3
COc1ccccc1N1CCN(C[C@H]2CCC(c3ccccc3)(c3ccccc3)[C@@H]2O)CC1 | 245 | 44.7 | 37.3 | 6.82 | 6.39 | 0.794 | 8.74 | 7.14 | 67.6
O[C@@H]1[C@H](CNCCOc2ccccc2)CCC1(c1ccccc1)c1ccccc1 (relative stereo) | > 1000 | > 1000 | 46.5 | 6.88 | 5.23 | 9.33 | 7.81 | 6.26 | > 1000

From ChEMBL document CHEMBL1944594, “Synthesis, biological evaluation, and docking studies of tetrahydrofuran- cyclopentanone- and cyclopentanol-based ligands acting at adrenergic α₁- and serotonine 5-HT1A receptors” (J Med Chem, 2012)
